Experimental findings from patent US7803801B2, “Aminopyridine compounds having Syk inhibitory activity” (Japan Tobacco, Inc., priority 2005, dated 2010) are described below.

Test [1] concerns the target GST-Syk Full Protein (human) (Homo sapiens, UniProt P43405). As to the kind of experiment: Syk kinase inhibition test (HTRF method). Type of test: biochemical. Particulars: Tables 1-x, compounds A; read-out: sykHTRF ave IC50. In short, it runs like this:
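HTRF read-out: after EDTA termination and 1 h with XL665-streptavidin and Eu-anti-phosphotyrosine, the 665/620 nm ratio was measured. The reaction ran 30 min at 20–25 °C with final 6.4 nM human GST-Syk, 250 nM biotinylated peptide, 100 μM ATP, pH 7.0 HEPES buffer, 2% DMSO.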

The test system of test [2] is cultured human mast cells. As to the kind of experiment: Degranulation inhibition test using cultured human mast cells (IgE cross-linking, β-Hexosaminidase release). Type of test: cell-based. Particulars: Mast cell; Tables 1-x, compounds A; cultured human mast cells; read-out: human degranulation ave. IC50. Summed up: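 Degranulation was triggered by anti-hIgE (10 μg/mL final, 30 min, 37 °C) after a 10-min compound pretreatment (DMSO 0.1%) of cord-blood CD34+-derived mast cells primed 5 days with IL-4 and IgE. β-Hexosaminidase in supernatant was measured with p-nitrophenyl-GlcNAc substrate (A405), expressed against water-lysed total; IC50 (M).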

Molecules are shown by their SMILES. pIC50: −log10 of the molar value. Where a name gives a salt, the structure may show the parent alone. Bounds are passed on as bounds.

As for `CC(O)c1ccnc(Nc2cccc(-c3cnc(N4CCC(C(N)=O)CC4)s3)n2)c1` (stereo not drawn) [Compound A-547, 1-(5-{6-[4-(1-hydroxyethyl)pyridin-2-ylamino]pyridin-2-yl}thiazol-2-yl)piperidine-4-carboxamide], the figures for the pIC50 in test [1] and in test [2] were over 7.00 and under 6.00, respectively.

For `CC1(c2ccnc(Nc3cccc(-c4cnc(N5CC[C@@H](O)C5)s4)n3)c2)OCCO1` [Compound A-548, (R)-1-(5-{6-[4-(2-methyl-[1,3]dioxolan-2-yl)pyridin-2-ylamino]pyridin-2-yl}thiazol-2-yl)pyrrolidin-3-ol], the results for the pIC50 in test [1] and in test [2] were over 7.00 and 6.00 to 7.00, respectively.

Take `CC(=O)c1ccnc(Nc2cccc(-c3cnc(N4CC[C@@H](O)C4)s3)n2)c1` [Compound A-549, 1-(2-{6-[2-((R)-3-hydroxypyrrolidin-1-yl)thiazol-5-yl]pyridin-2-ylamino}pyridin-4-yl)ethanone]: the pIC50 is over 7.00 in test [1] and 6.00 to 7.00 in test [2].

With `Cc1ccnc(Nc2cccc(-c3cnc(N4CCN(C(=O)CCC(=O)O)CC4)s3)n2)c1` [Compound A-551, 4-(4-{5-[6-(4-methylpyridin-2-ylamino)pyridin-2-yl]thiazol-2-yl}piperazin-1-yl)-4-oxobutyric acid], the pIC50 in test [1] is over 7.00; in test [2] it was under 6.00.

Turning to `O=C(NO)[C@@H]1CCCN(c2ncc(-c3cccc(Nc4cc(Cl)ccn4)n3)s2)C1` [Compound A-552, N-hydroxy-(R)-1-{5-[6-(4-chloropyridin-2-ylamino)pyridin-2-yl]thiazol-2-yl}piperidine-3-carboxamide], the pIC50 is over 7.00 in test [1] and 6.00 to 7.00 in test [2].

For `Cc1ccnc(Nc2cccc(-c3cnc(N(C)C4CCN(C(=O)CCC(=O)O)CC4)s3)n2)c1` [Compound A-553, 4-[4-(N-methyl-N-{5-[6-(4-methylpyridin-2-ylamino)pyridin-2-yl]thiazol-2-yl}amino)piperidin-1-yl]-4-oxobutyric acid], the figures for the pIC50 in test [1] and in test [2] were over 7.00 and under 6.00, respectively.

With `CC(O)c1ccnc(Nc2cccc(-c3cnc(N4CC[C@@H](O)C4)s3)n2)c1` (stereo partly drawn) [Compound A-554, (R)-1-(5-{6-[4-(1-hydroxyethyl)pyridin-2-ylamino]pyridin-2-yl}thiazol-2-yl)pyrrolidin-3-ol], the pIC50 in test [1] was over 7.00; in test [2], 6.00 to 7.00.

For the compound `Cc1ccnc(Nc2cccc(-c3cnc(N(C)CC(N)=O)s3)n2)c1` [Compound A-556, 2-(N-methyl-N-{5-[6-(4-methylpyridin-2-ylamino)pyridin-2-yl]thiazol-2-yl}amino)acetamide], the pIC50 in test [1] and in test [2] was over 7.00 throughout.

For `CC1(c2ccnc(Nc3cccc(-c4cnc(N5CCC[C@@H](C(=O)O)C5)s4)n3)c2)OCCO1` [Compound A-558, (R)-1-{5-(6-[4-(2-methyl-[1,3]dioxolan-2-yl)pyridin-2-ylamino]pyridin-2-yl}thiazol-2-yl)piperidine-3-carboxylic acid], the negative logarithm of the IC50 (pIC50) was over 7.00 in test [1] and under 6.00 in test [2].

With `CC(=O)c1ccnc(Nc2cccc(-c3cnc(N4CCC[C@@H](C(=O)O)C4)s3)n2)c1` [Compound A-560, (R)-1-{5-[6-(4-acetylpyridin-2-ylamino)pyridin-2-yl]thiazol-2-yl}piperidine-3-carboxylic acid], the pIC50 was over 7.00 in test [1] and 6.00 to 7.00 in test [2].

Take `CC(=O)c1ccnc(Nc2cccc(-c3cnc(N4CCC[C@H]4C(N)=O)s3)n2)c1` [Compound A-561, (S)-1-{5-[6-(4-acetylpyridin-2-ylamino)pyridin-2-yl]thiazol-2-yl}pyrrolidine-2-carboxamide]: the negative-log IC50 (pIC50) is over 7.00 in test [1] and 6.00 to 7.00 in test [2].

On to `OCC1CCN(c2ncc(-c3cccc(Nc4cc(Cl)ccn4)n3)s2)C1` (stereo not drawn) [Compound A-562, (1-{5-[6-(4-chloropyridin-2-ylamino)pyridin-2-yl]thiazol-2-yl}pyrrolidin-3-yl)methanol], for which the pIC50 in test [1] and in test [2] was over 7.00 in each case.

`CC(=O)N1CC[C@@H](N(C)c2ncc(-c3cccc(Nc4cc(C)ccn4)n3)s2)C1` [Compound A-563, 1-[(R)-3-(N-methyl-N-{5-[6-(4-methylpyridin-2-ylamino)pyridin-2-yl]thiazol-2-yl}amino)pyrrolidin-1-yl]ethanone]: the values for the pIC50 in test [1] and in test [2] were over 7.00 and 6.00 to 7.00, respectively.

Regarding `CC(=O)c1ccnc(Nc2cccc(-c3cnc(N4CCC[C@H]4C(=O)O)s3)n2)c1` [Compound A-564, (S)-1-{5-[6-(4-acetylpyridin-2-ylamino)pyridin-2-yl]thiazol-2-yl}pyrrolidine-2-carboxylic acid dihydrochloride], the pIC50 is over 7.00 in test [1] and under 6.00 in test [2].

As to `CC1(c2ccnc(Nc3cccc(-c4cnc(N5CCC[C@@H](C(N)=O)C5)s4)n3)c2)OCCO1` [Compound A-565, (R)-1-(5-{6-[4-(2-methyl-[1,3]dioxolan-2-yl)pyridin-2-ylamino]pyridin-2-yl}thiazol-2-yl)piperidine-3-carboxamide], the pIC50 is over 7.00 in test [1] and 6.00 to 7.00 in test [2].

As to `Cc1ccnc(Nc2cccc(-c3cnc(N4CCC[C@@H](CC(=O)O)C4)s3)n2)c1` [Compound A-567, ((S)-1-{5-[6-(4-methylpyridin-2-ylamino)pyridin-2-yl]thiazol-2-yl}piperidin-3-yl)acetic acid], the pIC50 is over 7.00 in test [1] and 6.00 to 7.00 in test [2].

Consider `Cc1ccnc(Nc2cccc(-c3cnc(N(C)CC(=O)N[C@H](C(=O)O)C(C)C)s3)n2)c1` [Compound A-568, (S)-3-methyl-2-[2-(N-methyl-N-{5-[6-(4-methylpyridin-2-ylamino)pyridin-2-yl]thiazol-2-yl}amino)acetylamino]butyric acid dihydrochloride], for which the pIC50 is over 7.00 in test [1] and under 6.00 in test [2].

For the compound `Cc1ccnc(Nc2cccc(-c3cnc(N(C)CC(=O)NCCC(=O)O)s3)n2)c1` [Compound A-570, 3-[2-(N-methyl-N-{5-[6-(4-methylpyridin-2-ylamino)pyridin-2-yl]thiazol-2-yl}amino)acetylamino]propionic acid dihydrochloride], the pIC50 in test [1] is over 7.00; in test [2], under 6.00.

With `Cc1ccnc(Nc2cccc(-c3cnc(N(C)CC(=O)NCC(=O)O)s3)n2)c1` [Compound A-571, [2-(N-methyl-N-{5-[6-(4-methylpyridin-2-ylamino)pyridin-2-yl]thiazol-2-yl}amino)acetylamino]acetic acid dihydrochloride], the pIC50 is over 7.00 in test [1] and under 6.00 in test [2].

On to `CC1(c2ccnc(Nc3cccc(-c4cnc(N5CCC(CC(=O)O)CC5)s4)n3)c2)OCCO1` [Compound A-572, [1-(5-{6-[4-(2-methyl-[1,3]dioxolan-2-yl)pyridin-2-ylamino]pyridin-2-yl}thiazol-2-yl)piperidin-4-yl]acetic acid dihydrochloride], for which the values for the pIC50 in test [1] and in test [2] were over 7.00 and 6.00 to 7.00, respectively.

Consider `O=C(O)CC1CCN(c2ncc(-c3cccc(Nc4ccccn4)n3)s2)CC1` [Compound A-573, (1-{5-[6-(pyridin-2-ylamino)pyridin-2-yl]thiazol-2-yl}piperidin-4-yl)acetic acid dihydrochloride], for which the results for the pIC50 in test [1] and in test [2] were over 7.00 and under 6.00, respectively.

Regarding `Cc1ccnc(Nc2cccc(-c3cnc(N(C)Cc4ccc(C(=O)O)cc4)s3)n2)c1` [Compound A-574, 4-[(N-methyl-N-{5-[6-(4-methylpyridin-2-ylamino)pyridin-2-yl]thiazol-2-yl}amino)methyl]benzoic acid dihydrochloride], the values for the pIC50 in test [1] and in test [2] were over 7.00 and 6.00 to 7.00, respectively.

For the compound `Cc1ccnc(Nc2cccc(-c3cnc(N4CC[C@@H](OCC(=O)O)C4)s3)n2)c1` [Compound A-575, ((R)-1-{5-[6-(4-methylpyridin-2-ylamino)pyridin-2-yl]thiazol-2-yl}pyrrolidin-3-yloxy)acetic acid dihydrochloride], the pIC50 in test [1] is over 7.00; in test [2] it was under 6.00.

`Cc1ccnc(Nc2cccc(-c3cnc(N4CCC(C(=O)O)C4)s3)n2)c1` (stereo not drawn) [Compound A-576, 1-{5-[6-(4-methylpyridin-2-ylamino)pyridin-2-yl]thiazol-2-yl}pyrrolidine-3-carboxylic acid dihydrochloride]: the pIC50 was over 7.00 in test [1] and under 6.00 in test [2].

As for `OCCc1ccnc(Nc2cccc(-c3cnc(N4CC[C@@H](O)C4)s3)n2)c1` [Compound A-577, (R)-1-(5-{6-[4-(2-hydroxyethyl)pyridin-2-ylamino]pyridin-2-yl}thiazol-2-yl)pyrrolidin-3-ol dihydrochloride], the pIC50 is over 7.00 in test [1] and 6.00 to 7.00 in test [2].

As to `Cc1ccnc(Nc2cccc(-c3cnc(N(C)[C@H]4CN[C@H](C(=O)O)C4)s3)n2)c1` [Compound A-579, (2S,4R)-4-(N-methyl-N-{5-[6-(4-methylpyridin-2-ylamino)pyridin-2-yl]thiazol-2-yl}amino)pyrrolidine-2-carboxylic acid], the pIC50 was over 7.00 in test [1] and under 6.00 in test [2].

Consider `Cc1ccnc(Nc2cccc(-c3cnc(N(C)CC(=O)N(C)CC(=O)O)s3)n2)c1` [Compound A-580, {N-methyl-N-[2-(N′-methyl-N′-{5-[6-(4-methylpyridin-2-ylamino)pyridin-2-yl]thiazol-2-yl}amino)acetyl]amino}acetic acid dihydrochloride], for which the pIC50 was over 7.00 in test [1] and under 6.00 in test [2].
